Data published in paper PMC9138261, “Enhancing the Bioactivity of Bicyclic Peptides Targeted to Grb7-SH2 by Restoring Cell Permeability” (Biomedicines, 2022).
Read-outs that look alike come from different tables or passages of the source. Positions of bridges follow the written chain, without caps; N, C: chain ends. Residues, ends and D or L forms follow the SMILES beside them. No end group written: not given here.

Legend:
[1] = target: T1, Grb7-SH2 domain (Homo sapiens, UniProt Q14451); assay: Surface plasmon resonance (SPR) binding to Grb7-SH2 domain; conditions: for Kd: SPR BIAcore T100, GST-Grb7-SH2 captured via anti-GST antibody on CM5 chip, 50mM Na3PO4, 150–300 mM NaCl, 1 mM DTT pH 7.4, peptides without Penetratin, 0.015 to 250 μM, triplicate injections, steady-state, single-site binding model, errors are SD from model, SD, read-out: equilibrium dissociation binding constant (KD)
T1 construct: made in house
Method: GST and GST-Grb7-SH2 proteins were expressed and purified as previously described. Briefly, Grb7-SH2 was expressed as a GST fusion, and protein was purified via GST affinity chromatography, followed by size exclusion chromatography.
SPR experiments were carried out as previously described using the BIAcore T100 [23, 26]. BIAcore CM5 series S sensor chips (GE Life Sciences, Paramatta, NSW, Australia) were utilised. Amine coupling was used to immobilise the anti-GST antibody (Abcam, Cambridge, UK) to all flow cells. The immobilisation levels were between 11,000 RU and 7700 RU. As a control, the first flow cell captured only GST. GST-Grb7-SH2 was immobilised on flow cell 2 at close to 2800 RU. Peptides were resuspended in an analysis buffer consisting of 50mM Na3PO4, 150–300 mM NaCl, and 1 mM DTT (pH 7.4). The peptide was injected over flow cells at 30 μL/min for 60–80 s in triplicates. Double-referenced SPR data were analysed using Scrubber 2.0 (BioLogic Software, Campbell, ACT, Australia) and Prism 9.2.0 (GraphPad Prism v9.0, San Diego, CA, USA).
Here, it should be noted that the peptides were tested in the absence of the Penetratin tail shown in the schematic (Figure 1). In brief, peptides, at a range of concentrations, flowed over the chip surface to which the Grb7-SH2 domain was tethered, and the response was detected over time. […] In order to quantitate the binding affinities, the equilibrium dissociation binding constants (KD) for each peptide were calculated using binding curves derived from the sensogram responses at equilibrium (Figure 2E).
Figure 2 SPR binding analysis of newly developed Grb7-SH2-targeting peptides. […] Errors are SD arising from model.

[2] = target: T1, Grb7-SH2 domain; conditions: earlier work; cited from earlier work
Source text: Three peptides were designed with Phe-Pro, Phe-Trp, or Phe-Arg incorporated at positions 9 and 10 of the amino acid sequence. […] Thus, it can be concluded that the lactam linkage confers a degree of rigidity sufficient to enha ...
Target sequence in this assay (Q14451 431-527 limits assumed): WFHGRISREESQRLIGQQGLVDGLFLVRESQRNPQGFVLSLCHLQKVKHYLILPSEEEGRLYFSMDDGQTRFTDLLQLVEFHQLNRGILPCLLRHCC

[3] = not told; cited from earlier work
[4] = target: T2, GST-Grb7-SH2 (UniProt Q14451 415-532); assay: SPR; BIAcore T100, CM5 chip; GST-Grb7-SH2 held (close to 2800 RU) on amine-coupled anti-GST antibody, GST alone on the reference flow cell; peptides 0.015 to 250 uM injected at 30 uL/min for 60-80 s in triplicates; 50 mM Na3PO4, 150-300 mM NaCl, 1 mM DTT, pH 7.4; KD from steady-state responses, single-site binding model; conditions: both partners purified
T2 construct: Captured on the chip by an anti-GST antibody; also called Grb7-SH2 domain
T2 sequence (Q14451 415-532): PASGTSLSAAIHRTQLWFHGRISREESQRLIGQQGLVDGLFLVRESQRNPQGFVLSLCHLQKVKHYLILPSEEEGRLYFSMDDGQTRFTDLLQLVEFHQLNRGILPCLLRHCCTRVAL

Molecule: NC(=O)C[C@@H]1NC(=O)[C@H](CC(=O)O)NC(=O)[C@H](Cc2ccc(O)cc2)NC(=O)CNC(=O)[C@H](CCC(=O)O)NC(=O)[C@H](Cc2ccccc2)NC(=O)[C@@H]2CCCCNC(=O)CC[C@H](NC1=O)C(=O)N[C@@H](Cc1ccccc1)C(=O)N1CCC[C@H]1C(=O)N[C@H](C(N)=O)CSCC(=O)N2 [G7-B8] ({CH2CO}-KFEGYDNEFPC-NH2; lactam 1-8; thioether N-11; C-terminus assumed)
- Kd [1]: 860 ± 80 nM
- fold increase in affinity over G7-18NATE ([1]; ratio of SPR KD values): approximately 8 fold

Molecule: NC(=O)C[C@@H]1NC(=O)[C@H](CC(=O)O)NC(=O)[C@H](Cc2ccc(O)cc2)NC(=O)CNC(=O)[C@H](CCC(=O)O)NC(=O)[C@H](Cc2ccccc2)NC(=O)[C@@H]2CCCCNC(=O)CC[C@H](NC1=O)C(=O)N[C@@H](Cc1ccccc1)C(=O)N[C@@H](Cc1c[nH]c3ccccc13)C(=O)N[C@H](C(N)=O)CSCC(=O)N2 [G7-B9] ({CH2CO}-KFEGYDNEFWC-NH2; lactam 1-8; thioether N-11; C-terminus assumed)
- Kd [1]: 2680 ± 390 nM

Molecule: N=C(N)NCCC[C@@H]1NC(=O)[C@H](Cc2ccccc2)NC(=O)[C@@H]2CCC(=O)NCCCC[C@H](NC(=O)CSC[C@@H](C(N)=O)NC1=O)C(=O)N[C@@H](Cc1ccccc1)C(=O)N[C@@H](CCC(=O)O)C(=O)NCC(=O)N[C@@H](Cc1ccc(O)cc1)C(=O)N[C@@H](CC(=O)O)C(=O)N[C@@H](CC(N)=O)C(=O)N2 [G7-B10] ({CH2CO}-KFEGYDNEFRC-NH2; lactam 1-8; thioether N-11; C-terminus assumed)
- Kd [1]: 1150 ± 408 nM

Molecule: G7-B1: bicyclic G7 peptide with O-allylserine-based olefin staple between positions 1 and 8 (SFEGYDNSFPC; bicyclic: O-allylserine at positions 1 and 8 (parent Ser) joined by olefin staple (ring-closing metathesis); thioether linkage from N-terminal amine (acetyl/CH2CO) to Cys11 side chain; C-terminal amid)
- Kd [2]: 1500 nM

Molecule: KFEGYDNEC (also: bicyclic or more (positions not given here)) [G7-B7]
- membrane permeability [3]: membrane-impermeable

B1: G7-18NATE (peptide)
peptide: WFEGYDNTFPC
modifications: cyclic: thioether linkage that tethers the N-terminal amine to the cysteine side chain
notes: non-phosphorylated cyclic peptide of 11 amino acids identified by phage display; also called first-generation monocyclic peptide; source: synthetic peptide, bought: Purar Chemicals (RP-HPLC, >95% purity)
- Kd [4]: 7830 nM
